Data: ChEMBL document CHEMBL5724806, “Unraveling interindividual differences and functional consequences of gut microbial metabolism of immunosuppressants” (2024)

Tests used:
Type in all cases: ADME
[1] = (§1) The drug is tested on Escherichia coli strain: DSM27469 for biotransformation under microaerobic condition. The drug concentrations were measured over 6 timepoints collected between 0 and 12 hours of incubation by liquid-chromatography-coupled mass spectrometry (LC–MS); design: dose 5 uM, timepoint 0, 1.5, 3, 6, 9, 12 hours; details: 5 µM
[2] = (§2) The drug is tested on Streptococcus sanguinis strain: DSM20567 for biotransformation under anaerobic condition. The drug concentrations were measured over 6 timepoints collected between 0 and 12 hours of incubation by liquid-chromatography-coupled mass spectrometry (LC–MS); design: dose 5 uM, timepoint 0, 1.5, 3, 6, 9, 12 hours; details: 5 µM
[3] = The drug is tested on Eubacterium hallii strain: DSM3353 for biotransformation under anaerobic condition. The drug concentrations were measured over 6 timepoints collected between 0 and 12 hours of incubation by liquid-chromatography-coupled mass spectrometry (LC–MS); design: dose 5 uM, timepoint 0, 1.5, 3, 6, 9, 12 hours; details: anaerobutyricum hallii, 5 µM
[4] = as §2, with “the gut metagenome community of A-03 with ENA study accession number: PRJEB31790” for “Streptococcus sanguinis strain: DSM20567”, “7” for “6”; design: dose 5 uM, timepoint 0, 0.75, 1.5, 3, 6, 9, 12 hours; details: 5 µM
[5] = The drug is tested on Streptococcus mitis strain: DSM12643 for biotransformation under microaerobic condition. The drug concentrations were measured over 6 timepoints collected between 0 and 12 hours of incubation by liquid-chromatography-coupled mass spectrometry (LC–MS); design: dose 5 uM, timepoint 0, 1.5, 3, 6, 9, 12 hours; details: 5 µM
[6] = The drug is tested on Bacteroides caccae strain: DSM19024 for biotransformation under anaerobic condition. The drug concentrations were measured over 6 timepoints collected between 0 and 12 hours of incubation by liquid-chromatography-coupled mass spectrometry (LC–MS); design: dose 5 uM, timepoint 0, 1.5, 3, 6, 9, 12 hours; details: 5 µM
[7] = as §1, with “the gut metagenome community of A-06 with ENA study accession number: PRJEB31790” for “Escherichia coli strain: DSM27469”, “7” for “6”; design: dose 5 uM, timepoint 0, 0.75, 1.5, 3, 6, 9, 12 hours; details: 5 µM
[8] = The drug is tested on Parabacteroides distasonis strain: DSM20701 for biotransformation under anaerobic condition. The drug concentrations were measured over 6 timepoints collected between 0 and 12 hours of incubation by liquid-chromatography-coupled mass spectrometry (LC–MS); design: dose 5 uM, timepoint 0, 1.5, 3, 6, 9, 12 hours; details: 5 µM
[9] = as §1, with “the gut metagenome community of A-10 with ENA study accession number: PRJEB31790” for “Escherichia coli strain: DSM27469”, “7” for “6”; design: dose 5 uM, timepoint 0, 0.75, 1.5, 3, 6, 9, 12 hours; details: 5 µM
[10] = The drug is tested on Lactobacillus gasseri strain: DSM20243 for biotransformation under microaerobic condition. The drug concentrations were measured over 6 timepoints collected between 0 and 12 hours of incubation by liquid-chromatography-coupled mass spectrometry (LC–MS); design: dose 5 uM, timepoint 0, 1.5, 3, 6, 9, 12 hours; details: 5 µM
[11] = The drug is tested on Streptococcus anginosus strain: DSM20563 for biotransformation under anaerobic condition. The drug concentrations were measured over 6 timepoints collected between 0 and 12 hours of incubation by liquid-chromatography-coupled mass spectrometry (LC–MS); design: dose 5 uM, timepoint 0, 1.5, 3, 6, 9, 12 hours; details: 5 µM
[12] = The drug is tested on Blautia hansenii strain: DSM20583 for biotransformation under anaerobic condition. The drug concentrations were measured over 6 timepoints collected between 0 and 12 hours of incubation by liquid-chromatography-coupled mass spectrometry (LC–MS); design: dose 5 uM, timepoint 0, 1.5, 3, 6, 9, 12 hours; details: 5 µM
[13] = The drug is tested on Streptococcus mitis strain: DSM12643 for biotransformation under anaerobic condition. The drug concentrations were measured over 6 timepoints collected between 0 and 12 hours of incubation by liquid-chromatography-coupled mass spectrometry (LC–MS); design: dose 5 uM, timepoint 0, 1.5, 3, 6, 9, 12 hours; details: 5 µM
[14] = The drug is tested on Clostridium bolteae strain: DSM15670 for biotransformation under anaerobic condition. The drug concentrations were measured over 6 timepoints collected between 0 and 12 hours of incubation by liquid-chromatography-coupled mass spectrometry (LC–MS); design: dose 5 uM, timepoint 0, 1.5, 3, 6, 9, 12 hours; details: enterocloster bolteae, 5 µM
[15] = as §2, with “the gut metagenome community of A-09 with ENA study accession number: PRJEB31790” for “Streptococcus sanguinis strain: DSM20567”, “7” for “6”; design: dose 5 uM, timepoint 0, 0.75, 1.5, 3, 6, 9, 12 hours; details: 5 µM
[16] = The drug is tested on Parabacteroides merdae strain: DSM19495 for biotransformation under anaerobic condition. The drug concentrations were measured over 6 timepoints collected between 0 and 12 hours of incubation by liquid-chromatography-coupled mass spectrometry (LC–MS); design: dose 5 uM, timepoint 0, 1.5, 3, 6, 9, 12 hours; details: 5 µM
[17] = The drug is tested on Enterococcus faecalis strain: ATCC29212 for biotransformation under microaerobic condition. The drug concentrations were measured over 6 timepoints collected between 0 and 12 hours of incubation by liquid-chromatography-coupled mass spectrometry (LC–MS); design: dose 5 uM, timepoint 0, 1.5, 3, 6, 9, 12 hours; details: 5 µM
[18] = The drug is tested on Bacteroides uniformis strain: DSM6597 for biotransformation under anaerobic condition. The drug concentrations were measured over 6 timepoints collected between 0 and 12 hours of incubation by liquid-chromatography-coupled mass spectrometry (LC–MS); design: dose 5 uM, timepoint 0, 1.5, 3, 6, 9, 12 hours; details: 5 µM
[19] = The drug is tested on Dorea formicigenerans strain: DSM3992 for biotransformation under anaerobic condition. The drug concentrations were measured over 6 timepoints collected between 0 and 12 hours of incubation by liquid-chromatography-coupled mass spectrometry (LC–MS); design: dose 5 uM, timepoint 0, 1.5, 3, 6, 9, 12 hours; details: 5 µM
[20] = The drug is tested on Actinomyces naeslundi strain: DSM43013 for biotransformation under anaerobic condition. The drug concentrations were measured over 6 timepoints collected between 0 and 12 hours of incubation by liquid-chromatography-coupled mass spectrometry (LC–MS); design: dose 5 uM, timepoint 0, 1.5, 3, 6, 9, 12 hours; details: actinomyces naeslundii, 5 µM
[21] = The drug is tested on Bifidobacterium longum strain: DSM20088 for biotransformation under microaerobic condition. The drug concentrations were measured over 6 timepoints collected between 0 and 12 hours of incubation by liquid-chromatography-coupled mass spectrometry (LC–MS); design: dose 5 uM, timepoint 0, 1.5, 3, 6, 9, 12 hours; details: 5 µM
[22] = The drug is tested on Lactobacillus fermentum strain: DSM20052 for biotransformation under microaerobic condition. The drug concentrations were measured over 6 timepoints collected between 0 and 12 hours of incubation by liquid-chromatography-coupled mass spectrometry (LC–MS); design: dose 5 uM, timepoint 0, 1.5, 3, 6, 9, 12 hours; details: limosilactobacillus fermentum, 5 µM
[23] = The drug is tested on Coprococcus comes strain: ATCC27758 for biotransformation under anaerobic condition. The drug concentrations were measured over 6 timepoints collected between 0 and 12 hours of incubation by liquid-chromatography-coupled mass spectrometry (LC–MS); design: dose 5 uM, timepoint 0, 1.5, 3, 6, 9, 12 hours; details: 5 µM
[24] = The drug is tested on Odoribacter splanchnicus strain: DSM20712 for biotransformation under anaerobic condition. The drug concentrations were measured over 6 timepoints collected between 0 and 12 hours of incubation by liquid-chromatography-coupled mass spectrometry (LC–MS); design: dose 5 uM, timepoint 0, 1.5, 3, 6, 9, 12 hours; details: 5 µM
[25] = as §2, with “the gut metagenome community of T-03 with ENA study accession number: PRJEB31790” for “Streptococcus sanguinis strain: DSM20567”, “7” for “6”; design: dose 5 uM, timepoint 0, 0.75, 1.5, 3, 6, 9, 12 hours; details: 5 µM
[26] = The drug is tested on Roseburia intestinalis strain: DSM14610 for biotransformation under anaerobic condition. The drug concentrations were measured over 6 timepoints collected between 0 and 12 hours of incubation by liquid-chromatography-coupled mass spectrometry (LC–MS); design: dose 5 uM, timepoint 0, 1.5, 3, 6, 9, 12 hours; details: 5 µM
[27] = The drug is tested on Faecalibacterium prausnitzii strain: DSM17677 for biotransformation under anaerobic condition. The drug concentrations were measured over 6 timepoints collected between 0 and 12 hours of incubation by liquid-chromatography-coupled mass spectrometry (LC–MS); design: dose 5 uM, timepoint 0, 1.5, 3, 6, 9, 12 hours; details: faecalibacterium duncaniae, 5 µM
[28] = The drug is tested on Actinomyces graevenitzii strain: DSM15540 for biotransformation under microaerobic condition. The drug concentrations were measured over 6 timepoints collected between 0 and 12 hours of incubation by liquid-chromatography-coupled mass spectrometry (LC–MS); design: dose 5 uM, timepoint 0, 1.5, 3, 6, 9, 12 hours; details: 5 µM

Bacterial Biotransformation [1] | Bacterial Biotransformation [2] | Bacterial Biotransformation [3] | Bacterial Biotransformation [4] | Bacterial Biotransformation [5] | Bacterial Biotransformation [6] | Bacterial Biotransformation [7] | Bacterial Biotransformation [8] | Bacterial Biotransformation [9] | Bacterial Biotransformation [10] | Bacterial Biotransformation [11] | Bacterial Biotransformation [12] | Bacterial Biotransformation [13] | Bacterial Biotransformation [14] | Bacterial Biotransformation [15] | Bacterial Biotransformation [16] | Bacterial Biotransformation [17] | Bacterial Biotransformation [18] | Bacterial Biotransformation [19] | Bacterial Biotransformation [20] | SMILES | also measured
Compound NOT metabolized | Compound NOT metabolized | Compound NOT metabolized | Compound metabolized | Compound NOT metabolized | Compound NOT metabolized | Compound NOT metabolized | Compound NOT metabolized | Compound NOT metabolized | Compound NOT metabolized | Compound NOT metabolized | Compound NOT metabolized | Compound NOT metabolized | Compound NOT metabolized | Compound metabolized | Compound NOT metabolized | Compound NOT metabolized | Compound NOT metabolized | Compound NOT metabolized | Compound NOT metabolized | C[C@H]1C[C@H]2[C@@H]3CCC4=CC(=O)C=C[C@]4(C)[C@@]3(F)[C@@H](O)C[C@]2(C)[C@@]1(O)C(=O)CO [BETAMETHASONE] | Bacterial Biotransformation [21]: Compound NOT metabolized; Bacterial Biotransformation [22]: Compound NOT metabolized; Bacterial Biotransformation [23]: Compound NOT metabolized; Bacterial Biotransformation [24]: Compound NOT metabolized; Bacterial Biotransformation [25]: Compound NOT metabolized; Bacterial Biotransformation [26]: Compound NOT metabolized; Bacterial Biotransformation [27]: Compound NOT metabolized; Bacterial Biotransformation [28]: Compound NOT metabolized
Compound NOT metabolized | Compound NOT metabolized | Compound NOT metabolized | Compound NOT metabolized | Compound NOT metabolized | Compound NOT metabolized | Compound metabolized | Compound NOT metabolized | Compound metabolized | Compound NOT metabolized | Compound NOT metabolized | Compound NOT metabolized | Compound NOT metabolized | Compound NOT metabolized | Compound metabolized | Compound NOT metabolized | Compound NOT metabolized | Compound NOT metabolized | Compound NOT metabolized | Compound NOT metabolized | CCCC1O[C@@H]2C[C@H]3[C@@H]4CCC5=CC(=O)C=C[C@]5(C)[C@H]4[C@@H](O)C[C@]3(C)[C@]2(C(=O)CO)O1 (some centres undefined) [BUDESONIDE] | Bacterial Biotransformation [21]: Compound NOT metabolized; Bacterial Biotransformation [22]: Compound NOT metabolized; Bacterial Biotransformation [23]: Compound NOT metabolized; Bacterial Biotransformation [24]: Compound NOT metabolized; Bacterial Biotransformation [25]: Compound NOT metabolized; Bacterial Biotransformation [26]: Compound NOT metabolized; Bacterial Biotransformation [27]: Compound NOT metabolized; Bacterial Biotransformation [28]: Compound NOT metabolized
Compound NOT metabolized | Compound NOT metabolized | Compound NOT metabolized | Compound metabolized | Compound NOT metabolized | Compound NOT metabolized | Compound metabolized | Compound NOT metabolized | Compound metabolized | Compound NOT metabolized | Compound NOT metabolized | Compound NOT metabolized | Compound NOT metabolized | Compound NOT metabolized | Compound metabolized | Compound NOT metabolized | Compound NOT metabolized | Compound NOT metabolized | Compound NOT metabolized | Compound NOT metabolized | C[C@]12CCC(=O)C=C1CC[C@@H]1[C@@H]2C(=O)C[C@@]2(C)[C@H]1CC[C@]2(O)C(=O)CO [CORTISONE] | Bacterial Biotransformation [21]: Compound NOT metabolized; Bacterial Biotransformation [22]: Compound NOT metabolized; Bacterial Biotransformation [23]: Compound NOT metabolized; Bacterial Biotransformation [24]: Compound NOT metabolized; Bacterial Biotransformation [25]: Compound NOT metabolized; Bacterial Biotransformation [26]: Compound NOT metabolized; Bacterial Biotransformation [27]: Compound NOT metabolized; Bacterial Biotransformation [28]: Compound NOT metabolized
